Assay results as given in ChEMBL document CHEMBL1136417, “Siphonols A-E: novel nitric oxide inhibitors from Orthosiphon stamineus of Indonesia” (Bioorg Med Chem Lett, 2003).

Tested on: J774
Test: Inhibitory activity against nitric oxide production in lipopolysaccharide (LPS)-activated macrophage -like J774.1 cell
Assay type: functional, cell-based, Mus musculus

| Molecule | IC50 (Mus musculus, J774) [µM] | IC50 (j774) [µM] |
| --- | --- | --- |
| C=C[C@@]1(C)C[C@@H](OC(=O)c2ccccc2)C2[C@]3(COC(C)=O)C(C[C@@H](O)[C@@]2(O)C1=O)C(C)(C)[C@H](OC(C)=O)[C@H](OC(C)=O)[C@@H]3OC(=O)c1ccccc1 (stereo partly drawn) | 46.5 | – |
| C[C@@H]1C[C@H]2[C@@H]3CCC4=CC(=O)C=C[C@]4(C)[C@@]3(F)[C@@H](O)C[C@]2(C)[C@@]1(O)C(=O)CO [DEXAMETHASONE] | 170 | – |
| POLYMYXIN B | – | 27.8 |
| C=C[C@@]1(C)C[C@@H](OC(=O)c2ccccc2)C2[C@]3(CO)C(C[C@@H](OC(C)=O)[C@@]2(O)C1=O)C(C)(C)[C@H](OC(C)=O)[C@H](OC(C)=O)[C@@H]3OC(=O)c1ccccc1 (stereo partly drawn) | 10.8 | – |
| C=C[C@@]1(C)C[C@@H](OC(=O)c2ccccc2)C2[C@]3(CO)C(C[C@@H](OC(C)=O)[C@@]2(O)C1=O)C(C)(C)[C@H](OC(C)=O)[C@H](O)[C@@H]3OC(=O)c1ccccc1 (stereo partly drawn) | 22.9 | – |

Further lines, results first:

| IC50 (Mus musculus, J774) [µM] | IC50 (j774) [µM] | Molecule |
| --- | --- | --- |
| 17.3 | – | C=C[C@@]1(C)C[C@@H](OC(=O)c2ccccc2)C2[C@]3(CO)C(C[C@@H](O)[C@@]2(O)C1=O)C(C)(C)[C@H](OC(C)=O)[C@H](OC(C)=O)[C@@H]3OC(=O)c1ccccc1 (stereo partly drawn) |
| 26 | – | CNC(=N)NCCC[C@H](N)C(=O)O [TILARGININE] |
| 23 | – | CC(=O)O[C@H]1[C@@H](OC(C)=O)C(C)(C)C2C[C@@H](OC(C)=O)[C@@]3(O)C(=O)[C@@](C)(C=O)C[C@@H](OC(=O)c4ccccc4)C3[C@@]2(CO)[C@H]1OC(=O)c1ccccc1 (stereo partly drawn) |
